Laboratory results as given in PubChem BioAssay AID248 (DTP/NCI, 2004).
Where “and” joins values, the source holds several entries; their conditions need not be identical. Equal entries are not always repeated. Inconclusive results and toxic doses are left out. No stated cut-off is given here; in the data, active means T/C of 150% or more; inactive means T/C below 125%.

System: L1210 leukemia ip in BDF1 mice, survival T/C
Experiment: NCI In Vivo Anticancer Drug Screen. Data for tumor model L1210 Leukemia (intraperitoneal) in B6D2F1 (BDF1) mice
Conditions: endpoint: mean survival time, higher = longer survival
Procedure, shortened: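 Survival endpoint. Drug-treated group vs vehicle group, expressed as T divided by C. Tumor passaged by transplantation.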

[1] = dose: 100.0 mg/kg/injection, schedule: Q04DX003 (ip), vehicle: Klucel (hydroxypropylcellulose) (HPC)
[2] = dose: 200.0 mg/kg/injection, schedule: Q04DX003 (ip), vehicle: Klucel (hydroxypropylcellulose) (HPC)
[3] = dose: 100.0 mg/kg/injection, schedule: Q04DX003 (ip), vehicle: saline
[4] = dose: 200.0 mg/kg/injection, schedule: Q04DX003 (ip), vehicle: saline
[5] = dose: 400.0 mg/kg/injection, schedule: Q04DX003 (ip), vehicle: saline
[6] = dose: 200.0 mg/kg/injection, schedule: Q01DX001 (ip), vehicle: other
[7] = dose: 400.0 mg/kg/injection, schedule: Q04DX003 (ip), vehicle: Klucel (hydroxypropylcellulose) (HPC)
[8] = dose: 100.0 mg/kg/injection, schedule: Q01DX009 (ip), vehicle: Klucel (hydroxypropylcellulose) (HPC)
[9] = dose: 200.0 mg/kg/injection, schedule: Q01DX009 (ip), vehicle: Klucel (hydroxypropylcellulose) (HPC)
[10] = dose: 400.0 mg/kg/injection, schedule: Q01DX009 (ip), vehicle: Klucel (hydroxypropylcellulose) (HPC)
[11] = dose: 100.0 mg/kg/injection, schedule: Q04DX002 (ip), vehicle: Klucel (hydroxypropylcellulose) (HPC)
[12] = dose: 200.0 mg/kg/injection, schedule: Q04DX002 (ip), vehicle: Klucel (hydroxypropylcellulose) (HPC)
[13] = dose: 400.0 mg/kg/injection, schedule: Q04DX002 (ip), vehicle: Klucel (hydroxypropylcellulose) (HPC)
[14] = dose: 100.0 mg/kg/injection, schedule: Q01DX001 (ip), vehicle: other
[15] = dose: 400.0 mg/kg/injection, schedule: Q01DX001 (ip), vehicle: other
[16] = dose: 12.5 mg/kg/injection, schedule: Q01DX009 (ip), vehicle: carboxymethylcellulose (CMC)
[17] = dose: 25.0 mg/kg/injection, schedule: Q01DX009 (ip), vehicle: carboxymethylcellulose (CMC)
[18] = dose: 50.0 mg/kg/injection, schedule: Q01DX009 (ip), vehicle: Klucel (hydroxypropylcellulose) (HPC)
[19] = dose: 100.0 mg/kg/injection, schedule: Q04DX003 (ip), vehicle: saline with Tween-80
[20] = dose: 200.0 mg/kg/injection, schedule: Q04DX003 (ip), vehicle: saline with Tween-80
[21] = dose: 400.0 mg/kg/injection, schedule: Q04DX003 (ip), vehicle: saline with Tween-80

Measured: T/C

Cc1ccc(C(C)C)cc1NC(=O)NCCCl
inactive: dose: 20.0 mg/kg/injection, schedule: Q04DX003 (ip), vehicle: Klucel (hydroxypropylcellulose) (HPC) 94 % of control | dose: 40.0 mg/kg/injection, schedule: Q04DX003 (ip), vehicle: Klucel (hydroxypropylcellulose) (HPC) 97 % of control | dose: 80.0 mg/kg/injection, schedule: Q04DX003 (ip), vehicle: Klucel (hydroxypropylcellulose) (HPC) 102 % of control | [1] 112 % of control | [2] 112 % of control

NN1CCCCCC1
inactive: [3] 102 % of control | [4] 97 % of control | [5] 94 % of control

NC(=O)Nc1ccc2c(c1)Cc1cc(F)ccc1-2
inactive: dose: 87.0 mg/kg/injection, schedule: Q01DX001 (ip), vehicle: other 100 % of control | dose: 89.0 mg/kg/injection, schedule: Q01DX001 (ip), vehicle: carboxymethylcellulose (CMC) 97 % of control and 109 % of control | dose: 100.0 mg/kg/injection, schedule: Q01DX001 (ip), vehicle: carboxymethylcellulose (CMC) 97 % of control | dose: 132.0 mg/kg/injection, schedule: Q01DX001 (ip), vehicle: other 97 % of control | dose: 133.0 mg/kg/injection, schedule: Q01DX001 (ip), vehicle: carboxymethylcellulose (CMC) 100 % of control and 112 % of control | dose: 200.0 mg/kg/injection, schedule: Q01DX001 (ip), vehicle: carboxymethylcellulose (CMC) 104 % of control and 105 % of control | [6] 92 % of control | dose: 300.0 mg/kg/injection, schedule: Q01DX001 (ip), vehicle: carboxymethylcellulose (CMC) 101 % of control and 108 % of control | dose: 300.0 mg/kg/injection, schedule: Q01DX001 (ip), vehicle: other 97 % of control | dose: 400.0 mg/kg/injection, schedule: Q01DX001 (ip), vehicle: carboxymethylcellulose (CMC) 105 % of control

CC(C)(SCCc1ccncc1)C(N)C(=O)O (centres undefined)
inactive: [1] 97 % of control | [2] 92 % of control | [7] 94 % of control

O=c1ccn(Cc2cccc(OCCCc3ccccc3)c2)c(=O)[nH]1
inactive: [8] 96 % of control | [9] 102 % of control | [10] 97 % of control

O=C1CCCCC1C(O)(C(=O)c1ccccc1)c1ccccc1 (centres undefined)
inactive: [11] 100 % of control | [12] 96 % of control | [13] 100 % of control

Cc1oc2ccc(O)c(N=Nc3ccc(Cl)cc3)c2c1C
inactive: [1] 100 % of control | [2] 90 % of control | [7] 95 % of control

NC(CSSc1ccccc1)=NCC12CC3CC(CC(C3)C1)C2
inactive: dose: 10.0 mg/kg/injection, schedule: Q01DX001 (ip), vehicle: carboxymethylcellulose (CMC) 96 % of control | dose: 20.0 mg/kg/injection, schedule: Q01DX001 (ip), vehicle: carboxymethylcellulose (CMC) 98 % of control

c1ccc(C2=NNC(c3ccccc3)(c3ccccc3)c3ccccc32)cc1
inactive: [14] 96 % of control | [6] 90 % of control | [15] 95 % of control

O=[N+]([O-])/C=C/c1ccc2ccccc2c1
inactive: [16] 104 % of control | [17] 101 % of control | [18] 107 % of control | dose: 50.0 mg/kg/injection, schedule: Q01DX009 (ip), vehicle: carboxymethylcellulose (CMC) 100 % of control | [14] 100 % of control | [8] 104 % of control | dose: 100.0 mg/kg/injection, schedule: Q01DX009 (ip), vehicle: carboxymethylcellulose (CMC) 101 % of control | [6] 91 % of control | [9] 93 % of control | [15] 96 % of control

CC(C)CN(C)N=Nc1ccc(C(N)=O)cc1
inactive: [14] 100 % of control | [6] 91 % of control

O=C(/C=C/c1ccccc1)N(c1ccccc1)C1CCCCC1
inactive: [1] 112 % of control | [2] 89 % of control | [7] 88 % of control

O=C1/C(=C/c2ccccc2)CCC2CCCCC12 (centres undefined)
inactive: [19] 94 % of control | [20] 100 % of control | [21] 94 % of control

C[n+]1nc2ccccc2c(=Nc2ccccc2[N+](=O)[O-])[n-]1
inactive: dose: 100.0 mg/kg/injection, schedule: Q01DX001 (ip), vehicle: Klucel (hydroxypropylcellulose) (HPC) 93 % of control | dose: 200.0 mg/kg/injection, schedule: Q01DX001 (ip), vehicle: Klucel (hydroxypropylcellulose) (HPC) 94 % of control | dose: 400.0 mg/kg/injection, schedule: Q01DX001 (ip), vehicle: Klucel (hydroxypropylcellulose) (HPC) 94 % of control

COc1cc(N)ccc1/C=C/C(=O)O
inactive: [3] 97 % of control | [4] 98 % of control | [5] 92 % of control

Cc1c(CCl)c(C)c(CCl)c(C)c1CCl
inactive: dose: 12.0 mg/kg/injection, schedule: Q04DX003 (ip), vehicle: Klucel (hydroxypropylcellulose) (HPC) 105 % of control | dose: 25.0 mg/kg/injection, schedule: Q01DX009 (ip), vehicle: Klucel (hydroxypropylcellulose) (HPC) 88 % of control | dose: 25.0 mg/kg/injection, schedule: Q04DX003 (ip), vehicle: Klucel (hydroxypropylcellulose) (HPC) 100 % of control | [18] 100 % of control | dose: 50.0 mg/kg/injection, schedule: Q04DX003 (ip), vehicle: Klucel (hydroxypropylcellulose) (HPC) 100 % of control

[Cl][Hg][Cl].c1ccc(CSc2ccccc2)cc1
inactive: dose: 5.0 mg/kg/injection, schedule: Q01DX001 (ip), vehicle: carboxymethylcellulose (CMC) 105 % of control

O=C(O)CC(NC(=O)COc1ccc(F)cc1)C(=O)O (centres undefined)
inactive: [11] 89 % of control | [12] 89 % of control | [13] 96 % of control

CC(=O)N(C)CC(O)C(O)C(O)C(O)CO (centres undefined)
inactive: [19] 100 % of control | [20] 94 % of control | [21] 96 % of control

COc1ccc([P+](=S)SS[P+](=S)c2ccc(OC)cc2)cc1 (centres undefined)
inactive: dose: 100.0 mg/kg/injection, schedule: Q04DX002 (ip), vehicle: saline with Tween-80 101 % of control | dose: 200.0 mg/kg/injection, schedule: Q04DX002 (ip), vehicle: saline with Tween-80 97 % of control

CCCCCCCCCCNc1ccc(NCCCCCCCCCC)cc1
inactive: [8] 108 % of control | [1] 95 % of control | [9] 109 % of control | [2] 102 % of control | [10] 90 % of control | [7] 105 % of control

CC(=O)NC1C(O)C(NC(C)=O)C(OC(C)=O)C(OC(C)=O)C1OC(C)=O (centres undefined)
inactive: [19] 95 % of control | [20] 101 % of control | [21] 94 % of control

O=C(NCCC[P+](c1ccccc1)(c1ccccc1)c1ccccc1)OCc1ccccc1
inactive: [16] 101 % of control and 120 % of control | dose: 12.5 mg/kg/injection, schedule: Q04DX002 (ip), vehicle: carboxymethylcellulose (CMC) 103 % of control | dose: 25.0 mg/kg/injection, schedule: Q01DX001 (ip), vehicle: carboxymethylcellulose (CMC) 87 % of control and 91 % of control | [17] 103 % of control | dose: 25.0 mg/kg/injection, schedule: Q04DX002 (ip), vehicle: carboxymethylcellulose (CMC) 100 % of control and 91 % of control | dose: 25.0 mg/kg/injection, schedule: Q04DX003 (ip), vehicle: carboxymethylcellulose (CMC) 97 % of control and 98 % of control | dose: 50.0 mg/kg/injection, schedule: Q01DX001 (ip), vehicle: carboxymethylcellulose (CMC) 95 % of control and 104 % of control | dose: 50.0 mg/kg/injection, schedule: Q04DX002 (ip), vehicle: carboxymethylcellulose (CMC) 100 % of control | dose: 50.0 mg/kg/injection, schedule: Q04DX003 (ip), vehicle: carboxymethylcellulose (CMC) 97 % of control and 100 % of control

CC(C)(C)c1ccc(SC(=O)Nc2cc([N+](=O)[O-])ccc2Cl)cc1
inactive: dose: 25.0 mg/kg/injection, schedule: Q01DX009 (ip), vehicle: saline with Tween-80 90 % of control | dose: 50.0 mg/kg/injection, schedule: Q01DX009 (ip), vehicle: saline with Tween-80 101 % of control | dose: 100.0 mg/kg/injection, schedule: Q01DX009 (ip), vehicle: saline with Tween-80 100 % of control and 92 % of control

CCC(SC(C)=O)C(=O)O (centres undefined)
inactive: dose: 50.0 mg/kg/injection, schedule: Q01DX009 (ip), vehicle: saline 96 % of control | dose: 100.0 mg/kg/injection, schedule: Q01DX009 (ip), vehicle: saline 91 % of control | [3] 89 % of control | dose: 200.0 mg/kg/injection, schedule: Q01DX009 (ip), vehicle: saline 91 % of control | [4] 96 % of control
